In US7601850B2, “Phenyl-thiophene type vitamin D receptor modulators” (Eli Lilly and Company, priority 2002, dated 2009):

system: rat osteocalcin promoter; experiment: OCN (osteocalcin) promoter assay in RG-15 (ROS 17/2.8) cells; assay type: cell-based; settings: not given
Procedure: 4. The OCN Promoter test is described in the “Assay” section of the Description, infra.
3. The OCN (Osteocalcin) Promoter Assay
The OCN Promoter Assay is an indicator and marker for osteoporosis. Desired assay results are EC50 less than or equal to 325 nM. Preferred assay results are less than 50 nM.
(3) Materials and Method for The OCN Promoter Assay:
The activation of osteocalcin by VDR ligands was evaluated in a rat osteoblast-like cell line RG-15 (ROS 17/2.8) stably expressing rat osteocalcin promoter fused with luciferase reporter gene. The stable cell lines were established as reported before (Activation of Osteocalcin Transcription involves interaction of protein kinase A- and Protein kinase C-dependent pathways. Boguslawski, G., Hale, L. V., Yu, X.-P., Miles, R. R., Onyia, J. E., Santerre R. F., Chandrasekhar, S. J Biol. Chem. 275, 999-1006, 2000). Confluent RG-15 cells maintained in DMEM/F-12 medium (3:1) containing 5% FBS, 300 µg/ml G418 and at 37° C. under 5% CO2/95% air atmosphere were trypsinized (0.25% trypsin) and plated into white opaque 96-well cell culture plates (25000 cells/well). After 24 hr, cells (in DMEM/F-12 medium+2% FBS) were treated with various concentrations of compounds, dissolved in DMSO. The final DMSO concentration remained at 0.01% (v/v). After 48 hr treatment, the medium was removed, cells were lysed with 50 µl of lysis buffer (From Luciferase reporter assay system, Roche Diagnostics, Indianapolis, Ind.) and assayed for luciferase activity using the Luciferase Reporter Gene Assay kit from Boehringer Mannheim as per manufacturer's specifications.

Structure (SMILES)	EC50 [nM]
CCC(CC)(c1ccc(OCC(O)C(C)(C)C)c(C)c1)c1cc(C)c(C(=O)N[C@H](C)C(=O)O)s1 (stereo partly drawn) [Ex. 57, D-2-[(5-{1-Ethyl-1-[4-(2-hydroxy-3,3-dimethyl-butoxy)-3-methyl-phenyl]-propyl}-3-methyl-thiophene-2-carbonyl)-amino]-propionic acid]	115
CCC(CC)(c1ccc(OCC(O)C(C)(C)C)c(C)c1)c1cc(C)c(C(=O)N2CCC[C@H]2C(=O)O)s1 (stereo partly drawn) [Ex. 75, L-1-(5-{1-Ethyl-1-[4-(2-hydroxy-3,3-dimethyl-butoxy)-3-methyl-phenyl]-propyl}-3-methyl-thiophene-2-carbonyl)-pyrrolidine-2-carboxylic acid]	423
CCC(CC)(c1ccc(OCC(O)C(C)(C)C)c(C)c1)c1cc(C)c(C(=O)N[C@@H](C(=O)O)C(C)C)s1 (stereo partly drawn) [Ex. 86, D-2-[(5-{1-Ethyl-1-[4-(2-hydroxy-3,3-dimethyl-butoxy)-3-methyl-phenyl]-propyl}-3-methyl-thiophene-2-carbonyl)-amino]-3-methyl-butyric acid]	205
CCC(CC)(c1ccc(OCC(O)C(C)(C)C)c(C)c1)c1cc(C)c(C(=O)N[C@@H](C(=O)O)C(C)C)s1 (stereo partly drawn) [Ex. 87, D-2-[(5-{1-ethyl-1-[4-(2-hydroxy-3,3-dimethyl-butoxy)-3-methyl-phenyl]-propyl}-3-methyl-thiophene-2-carbonyl)-amino]-3-methyl-butyric acid]	> 1000

same assay, conditions: Rattus norvegicus

Structure (SMILES)	EC50 [nM]
CCC(CC)(c1ccc(OCC(O)C(C)(C)C)c(C)c1)c1cc(C)c(C(=O)NCC(=O)OC)s1 (stereo not shown) [Ex. 46, 2-[5-{1-Ethyl-1-{4-(2-hydroxy-3,3-dimethyl-butyoxy)-3-methyl-phenyl-propyl}-3-methyl-thiophene-2-carbonyl)-amino]-acetic acid methyl ester]	43.6
CCC(CC)(c1ccc(OCC(O)C(C)(C)C)c(C)c1)c1cc(C)c(C(=O)NCC(=O)O)s1 (stereo not shown) [Ex. 47, 2-[5-{1-Ethyl-1-{4-(2-hydroxy-3,3-dimethyl-butyoxy)-3-methyl-phenyl-propyl}-3-methyl-thiophene-2-carbonyl)-amino]-acetic acid]	27.7
CCC(O)(CC)COc1ccc(C(CC)(CC)c2cc(C)c(C(=O)O)s2)cc1C [Ex. 51, 5-{1-Ethyl-1-[4-(2-ethyl-2-hydroxy-butoxy)-3-methyl-phenyl]-propyl}-3-methyl-thiophene-2-carboxylic acid]	781
CCC(O)(CC)COc1ccc(C(CC)(CC)c2cc(C)c(C(=O)NCC(=O)O)s2)cc1C [Ex. 53, 2-[(5-{1-Ethyl-1-[4-(2-ethyl-2-hydroxy-butoxy)-3-methyl-phenyl]-propyl}-3-methyl-thiophene-2-carbonyl)-amino]-acetic acid]	267
CCC(CC)(c1ccc(OCC(O)C(C)(C)C)c(C)c1)c1cc(C)c(C(=O)N[C@@H](CC(=O)O)C(=O)O)s1 (stereo partly drawn) [Ex. 59, L-2-[(5-{1-Ethyl-1-[4-(2-hydroxy-3,3-dimethyl-butoxy)-3-methyl-phenyl]-propyl}-3-methyl-thiophene-2-carbonyl)-amino]-succinic acid]	319
CCC(C)[C@H](NC(=O)c1sc(C(CC)(CC)c2ccc(OCC(O)C(C)(C)C)c(C)c2)cc1C)C(=O)OC (stereo partly drawn) [Ex. 68, L-2-[(5-{1-Ethyl-1-[4-(2-hydroxy-3,3-dimethyl-butoxy)-3-methyl-phenyl]-propyl}-3-methyl-thiophene-2-carbonyl)-amino]-3-methyl-pentanoic acid methyl ester]	56
CCC(C)[C@H](NC(=O)c1sc(C(CC)(CC)c2ccc(OCC(O)C(C)(C)C)c(C)c2)cc1C)C(=O)O (stereo partly drawn) [Ex. 69, L-2-[(5-{1-Ethyl-1-[4-(2-hydroxy-3,3-dimethyl-butoxy)-3-methyl-phenyl]-propyl}-3-methyl-thiophene-2-carbonyl)-amino]-3-methyl-pentanoic acid]	487
CCC(CC)(c1ccc(OCC(O)C(C)(C)C)c(C)c1)c1cc(C)c(C(=O)N2CCC[C@@H]2C(=O)O)s1 (stereo partly drawn) [Ex. 81, D-1-(5-{1-ethyl-1-[4-(2-hydroxy-3,3-dimethyl-butoxy)-3-methyl-phenyl]-propyl}-3-methyl-thiophene-2-carbonyl)-pyrrolidine-2-carboxylic acid]	200
CCC(CC)(c1ccc(OCC(O)C(C)(C)C)c(C)c1)c1ccc(C(=O)O)s1 (stereo not shown) [Ex. 88, 3′-[4-(2-hydroxy-3,3-dimethylbutoxy)-3-methylphenyl]-3′-[5-carboxy-thiophen-2-yl]pentane]	169
CCC(CC)(c1ccc(OCC(=O)C(C)(C)C)c(C(C)C)c1)c1ccc(C(=O)OC)s1 [Ex. 91, 3′-[4-(2-oxo-3,3-dimethylbutoxy)-3-(1-methylethyl)phenyl]-3′-[5-methoxycarbonyl-thiophen-2-yl]pentane]	212
CCc1cc(C(CC)(CC)c2ccc(C(=O)O)s2)ccc1OCC(C)(O)C(C)(C)C (stereo not shown) [Ex. 107, 3′-[4-(2-hydroxy-2,3,3-trimethylbutoxy)-3-ethylphenyl]-3′-[5-carboxy-thiophen-2-yl]pentane]	42.3
CCCc1cc(C(CC)(CC)c2ccc(C(=O)O)s2)ccc1OCC(C)(O)C(C)(C)C (stereo not shown) [Ex. 111, 3′-[4-(2-hydroxy-2,3,3-trimethylbutoxy)-3-n-propylphenyl]-3′-[5-carboxy-thiophen-2-yl]pentane]	34.5
CCC(CC)(c1ccc(OCC(C)(O)C(C)(C)C)c(OC)c1)c1ccc(C(=O)N[C@@H](C)C(=O)O)s1 (stereo partly drawn) [Ex. 115, d-3′-[4-(2-hydroxy-2,3,3-trimethylbutoxy)-3-methoxyphenyl]-3′-[5-(carboxy-1-ethylamino)carbonyl-thiophen-2-yl]pentane]	19.9
CCC(CC)(c1ccc(OCC(=O)C(C)(C)C)c(C)c1)c1cc(C)c(C(=O)N(C)CC(=O)O)s1 [Ex. 118, N-methyl-2-[(5-{1-[4-(3,3-Dimethyl-2-oxo-butoxy)-3-methyl-phenyl]-1-ethyl-propyl}-3-methyl-thiophene-2-carbonyl)-methylamino]-acetic acid]	32.2
CCC(CC)(c1ccc(OCC(O)C(C)(C)C)c(C)c1)c1cc(C)c(C(=O)N(C)CC(=O)O)s1 (stereo not shown) [Ex. 123, N-2-[(5-{1-ethyl-1-[4-(2-hydroxy-3,3-dimethyl-butoxy)-3-methyl-phenyl]-propyl}-3-methyl-thiophene-2-carbonyl)-methylamino]-acetic acid]	475
CCC(CC)(c1ccc(OCC(O)C(C)(C)C)c(C)c1)c1cc(C)c(CN(CC(=O)O)C(C)=O)s1 (stereo not shown) [Ex. 130, 2-[N-acetyl-(5-{1-ethyl-1-[4-(2-hydroxy-3,3-dimethyl-butoxy)-3-methyl-phenyl]-propyl}-3-methyl-thiophen-2-ylmethyl)-amino]-acetic acid]	49.7
CCC(CC)(c1ccc(OCC(=O)C(C)(C)C)c(C)c1)c1cc(C)c(CN(CC(=O)O)C(C)=O)s1 [Ex. 133, 2-[N-Acetyl-(5-{1-[4-(3,3-dimethyl-2-oxo-butoxy)-3-methyl-phenyl]-1-ethyl-propyl}-3-methyl-thiophen-2-yl-methyl)-amino]-acetic acid]	49.2
CCC(CC)(c1ccc(OCC(O)C(C)(C)C)c(C)c1)c1cc(C)c(S(=O)(=O)NCC(=O)O)s1 (stereo not shown) [Ex. 137]	24.2
CCC(CC)(c1ccc(OCC(=O)C(C)(C)C)c(C)c1)c1cc(C)c(S(=O)(=O)NCC(=O)O)s1 [Ex. 139]	31
CCOC(=O)CCNS(=O)(=O)c1sc(C(CC)(CC)c2ccc(OCC(O)C(C)(C)C)c(C)c2)cc1C (stereo not shown) [Ex. 140]	72.5
CCC(CC)(c1ccc(OCC(=O)C(C)(C)C)c(C)c1)c1cc(C)c(S(=O)(=O)NCCC(=O)O)s1 [Ex. 144]	29.2
